Laboratory results as given in patent US20150174081A1, “LIQUID PHARMACEUTICAL COMPOSITION COMPRISING NITISINONE” (Swedish Orphan Biovitrum International AB, priority 2011, published 2015).
Blank lines part the entries; values can stand above or below the compound they belong to.

Legend:
[1] = Particle size diameter (PSD) of nitisinone before and after air-jet micronization; format: physicochemical
Excerpt: A lab-scale air-jet mill, 2 inches qualification model, Sturtevant Inc., was used to micronize nitisinone obtained from the company Bachem, Switzerland. The mill was operated with tangential flow (i.e. the air and drug are fed in the same direction in the milling chamber). The unmilled drug was fed into the mill using a Venturi feed system, Syncron®, Magnet Feeder model F-TO-C, where air was used to draw the feed material into the milling chamber. A product filter bag was affixed to the outlet of the mill, through which the exhausts and the milled drug collects. The milling conditions were set as follows: • Grind air: Dry nitrogen gas • Grind pressure: 90 psi • Feed pressure: 85 psi • Room conditions: Ambient 5 g of the API was passed through the lab-scale micronizer and the resulting material was collected (3.7 g). The material was analyzed for/by particle size diameter (PSD), assay and purity by high performance liquid chromatography (HPLC), x-ray powder diffraction (XRPD), differential scanning calorimetry (DSC) and polarized light microscopy (PLM).

[2] = Stability of oxotetrahydroxanthenone solutions, LC-MS; format: physicochemical
Description: The stability study of the main degradation product in Example 6, oxotetrahydroxanthenone, is performed under similar conditions as described in Example 6. Samples of oxotetrahydroxanthenone (OTHX), 81 μg/ml in either citrate buffer pH 3.0 or phosphate buffer pH 6.8, were put on stability at +5° C., +25° C. and +37° C., respectively, for 6 months. The concentrations of OTHX and the secondary degradation products 1,3-cyclohexanedione (CHD) and 4-(trifluoromethyl)salicylic acid (TSA) were analyzed by LC-MS. The results, shown in Table XI, below, are expressed as percent of the initial concentration of OTHX. The mass balance expressed as the total recovery of CHD+OTHX+TSA compared to the initial concentration of OTHX were calculated from MmOTHX/(Mm CHD+MmTSA)×(CHDconc+TSAconc)+OTHXconc expressed in μg/ml where MmOTHX, MmCHD and MmTSA are the molecular masses corresponding to 282, 202 and 206 g/mol, respectively.

[3] = Citrate buffer pH 3.0, 5° C., 1.8 months
[4] = Citrate buffer pH 3.0, 5° C., 3 months
[5] = Citrate buffer pH 3.0, 5° C., 6 months
[6] = Citrate buffer pH 3.0, 25° C., 1.8 months
[7] = Citrate buffer pH 3.0, 25° C., 3 months
[8] = Citrate buffer pH 3.0, 25° C., 6 months
[9] = Citrate buffer pH 3.0, 37° C., 1.8 months
[10] = Citrate buffer pH 3.0, 37° C., 3 months
[11] = Citrate buffer pH 3.0, 37° C., 6 months
[12] = Phosphate buffer pH 6.8, 5° C., 1.8 months
[13] = Phosphate buffer pH 6.8, 5° C., 3 months
[14] = Phosphate buffer pH 6.8, 5° C., 6 months
[15] = Phosphate buffer pH 6.8, 25° C., 1.8 months
[16] = Phosphate buffer pH 6.8, 25° C., 3 months
[17] = Phosphate buffer pH 6.8, 25° C., 6 months
[18] = Phosphate buffer pH 6.8, 37° C., 1.8 months
[19] = Phosphate buffer pH 6.8, 37° C., 3 months
[20] = Phosphate buffer pH 6.8, 37° C., 6 months

Particle size diameter d10 [1]: 20.50 microns
Particle size diameter d20 [1]: 33.10 microns
Particle size diameter d50 [1]: 60.01 microns
Particle size diameter d80 [1]: 94.42 microns
Particle size diameter d90 [1]: 115.11 microns
Compound: O=C1CCCC(=O)C1C(=O)c1ccc(C(F)(F)F)cc1[N+](=O)[O-] [Start material, 2-(2-nitro-4-trifluoromethylbenzoyl)-1,3-cyclohexanedione]

Compound: O=C1CCCc2oc3cc(C(F)(F)F)ccc3c(=O)c21 [OTHX, 6-(trifluoromethyl)-3,4-dihydro-1H-xanthenene-1,9(2H)-dione]
Concentration of OTHX [2, 3]: 96.7% of the initial concentration of OTHX
Concentration of secondary degradation product CHD [2, 3]: 0.0% of the initial concentration of OTHX
Concentration of secondary degradation product TSA [2, 3]: 0.0% of the initial concentration of OTHX
Concentration of OTHX [2, 4]: 96.9% of the initial concentration of OTHX
Concentration of secondary degradation product CHD [2, 4]: 0.0% of the initial concentration of OTHX
Concentration of secondary degradation product TSA [2, 4]: 0.0% of the initial concentration of OTHX
Concentration of OTHX [2, 5]: 91.6% of the initial concentration of OTHX
Concentration of secondary degradation product CHD [2, 5]: 0.0% of the initial concentration of OTHX
Concentration of secondary degradation product TSA [2, 5]: 0.0% of the initial concentration of OTHX
Concentration of OTHX [2, 6]: 96.7% of the initial concentration of OTHX
Concentration of secondary degradation product CHD [2, 6]: 0.0% of the initial concentration of OTHX
Concentration of secondary degradation product TSA [2, 6]: 0.0% of the initial concentration of OTHX
Concentration of OTHX [2, 7]: 102.7% of the initial concentration of OTHX
Concentration of secondary degradation product CHD [2, 7]: 0.0% of the initial concentration of OTHX
Concentration of secondary degradation product TSA [2, 7]: 0.0% of the initial concentration of OTHX
Concentration of OTHX [2, 8]: 92.3% of the initial concentration of OTHX
Concentration of secondary degradation product CHD [2, 8]: 0.0% of the initial concentration of OTHX
Concentration of secondary degradation product TSA [2, 8]: 0.0% of the initial concentration of OTHX
Concentration of OTHX [2, 9]: 97.9% of the initial concentration of OTHX
Concentration of secondary degradation product CHD [2, 9]: 0.0% of the initial concentration of OTHX
Concentration of secondary degradation product TSA [2, 9]: 0.2% of the initial concentration of OTHX
Concentration of OTHX [2, 10]: 97.7% of the initial concentration of OTHX
Concentration of secondary degradation product CHD [2, 10]: 0.0% of the initial concentration of OTHX
Concentration of secondary degradation product TSA [2, 10]: 0.0% of the initial concentration of OTHX
Concentration of OTHX [2, 11]: 95.3% of the initial concentration of OTHX
Concentration of secondary degradation product CHD [2, 11]: 0.0% of the initial concentration of OTHX
Concentration of secondary degradation product TSA [2, 11]: 0.0% of the initial concentration of OTHX
Concentration of OTHX [2, 12]: 96.7% of the initial concentration of OTHX
Concentration of secondary degradation product CHD [2, 12]: 0.0% of the initial concentration of OTHX
Concentration of secondary degradation product TSA [2, 12]: 1.4% of the initial concentration of OTHX
Concentration of OTHX [2, 13]: 91.0% of the initial concentration of OTHX
Concentration of secondary degradation product CHD [2, 13]: 0.7% of the initial concentration of OTHX
Concentration of secondary degradation product TSA [2, 13]: 1.9% of the initial concentration of OTHX
Concentration of OTHX [2, 14]: 83.1% of the initial concentration of OTHX
Concentration of secondary degradation product CHD [2, 14]: 0.0% of the initial concentration of OTHX
Concentration of secondary degradation product TSA [2, 14]: 0.0% of the initial concentration of OTHX
Concentration of OTHX [2, 15]: 74.8% of the initial concentration of OTHX
Concentration of secondary degradation product CHD [2, 15]: 7.7% of the initial concentration of OTHX
Concentration of secondary degradation product TSA [2, 15]: 13.0% of the initial concentration of OTHX
Concentration of OTHX [2, 16]: 63.2% of the initial concentration of OTHX
Concentration of secondary degradation product CHD [2, 16]: 9.7% of the initial concentration of OTHX
Concentration of secondary degradation product TSA [2, 16]: 20.2% of the initial concentration of OTHX
Concentration of OTHX [2, 17]: 44.8% of the initial concentration of OTHX
Concentration of secondary degradation product CHD [2, 17]: 25.2% of the initial concentration of OTHX
Concentration of secondary degradation product TSA [2, 17]: 36.4% of the initial concentration of OTHX
Concentration of OTHX [2, 18]: 33.5% of the initial concentration of OTHX
Concentration of secondary degradation product CHD [2, 18]: 22.2% of the initial concentration of OTHX
Concentration of secondary degradation product TSA [2, 18]: 38.6% of the initial concentration of OTHX
Concentration of OTHX [2, 19]: 13.7% of the initial concentration of OTHX
Concentration of secondary degradation product CHD [2, 19]: 21.5% of the initial concentration of OTHX
Concentration of secondary degradation product TSA [2, 19]: 49.1% of the initial concentration of OTHX
Concentration of OTHX [2, 20]: 0.4% of the initial concentration of OTHX
Concentration of secondary degradation product CHD [2, 20]: 32.8% of the initial concentration of OTHX
Concentration of secondary degradation product TSA [2, 20]: 66.4% of the initial concentration of OTHX

Particle size diameter d10 [1]: 0.30 microns
Particle size diameter d20 [1]: 0.47 microns
Particle size diameter d50 [1]: 1.29 microns
Particle size diameter d80 [1]: 2.59 microns
Particle size diameter d90 [1]: 3.59 microns
Compound: O=C1CCCC(=O)C1C(=O)c1ccc(C(F)(F)F)cc1[N+](=O)[O-] [Micronized material, 2-(2-nitro-4-trifluoromethylbenzoyl)-1,3-cyclohexanedione]
